Experimental data: the supplement of paper PMC12076712

What was measured:
Test in all cases: pIC50, kinobeads binding competition
[1] = molecular target: UniProt O75582
Outline: (§1)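 Live Jurkat cells were treated with nine compound concentrations (top 30 μM, 1:4 steps) or DMSO for 60 min at 37 °C before lysis. Alternatively, Jurkat lysate or a 1:1:1:1 HEK293/K-562/HepG2/placenta lysate mix was incubated with nine concentrations (top 30 μM, 1:5 steps) for 60 min at 4 °C. Kinobeads-bound proteins were digested and quantified by TMT10 LC-MS/MS. pIC50 came from logistic dose-response fits (R drc package) of fold changes versus DMSO, in biological duplicates.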

[2] = molecular target: T1, EPHB3 (UniProt P54753); settings: cell material: Lysate mix
T1 sequence (whole entry): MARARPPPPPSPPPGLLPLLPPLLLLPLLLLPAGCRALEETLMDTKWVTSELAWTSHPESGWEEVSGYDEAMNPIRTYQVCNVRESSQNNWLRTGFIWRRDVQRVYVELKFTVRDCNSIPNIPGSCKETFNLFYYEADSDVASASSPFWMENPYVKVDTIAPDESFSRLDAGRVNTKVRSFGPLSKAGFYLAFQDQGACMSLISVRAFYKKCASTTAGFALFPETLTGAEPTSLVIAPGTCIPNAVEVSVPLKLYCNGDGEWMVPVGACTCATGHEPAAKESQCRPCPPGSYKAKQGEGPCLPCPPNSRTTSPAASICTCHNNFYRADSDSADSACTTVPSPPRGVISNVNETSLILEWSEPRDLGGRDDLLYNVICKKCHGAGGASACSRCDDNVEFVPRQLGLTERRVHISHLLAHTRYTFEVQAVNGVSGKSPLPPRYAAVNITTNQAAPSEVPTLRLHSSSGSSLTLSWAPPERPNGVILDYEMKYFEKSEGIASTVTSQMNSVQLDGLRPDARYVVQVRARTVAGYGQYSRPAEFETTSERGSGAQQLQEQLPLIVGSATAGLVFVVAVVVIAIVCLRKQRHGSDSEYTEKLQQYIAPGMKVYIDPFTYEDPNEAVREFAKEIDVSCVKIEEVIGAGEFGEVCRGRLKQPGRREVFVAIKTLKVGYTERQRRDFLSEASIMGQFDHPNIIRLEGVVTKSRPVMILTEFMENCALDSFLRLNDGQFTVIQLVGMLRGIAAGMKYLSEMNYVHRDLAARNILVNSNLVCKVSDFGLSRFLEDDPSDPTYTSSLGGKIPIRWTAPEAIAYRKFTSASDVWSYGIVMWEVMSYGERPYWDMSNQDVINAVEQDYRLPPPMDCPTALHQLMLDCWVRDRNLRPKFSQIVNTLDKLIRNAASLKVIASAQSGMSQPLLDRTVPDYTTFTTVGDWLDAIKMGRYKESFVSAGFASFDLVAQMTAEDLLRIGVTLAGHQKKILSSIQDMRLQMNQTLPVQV
Outline: as §1

[3] = molecular target: ROCK1 (UniProt Q13464)
Sequence of ROCK1 (Q13464 whole entry, looked up): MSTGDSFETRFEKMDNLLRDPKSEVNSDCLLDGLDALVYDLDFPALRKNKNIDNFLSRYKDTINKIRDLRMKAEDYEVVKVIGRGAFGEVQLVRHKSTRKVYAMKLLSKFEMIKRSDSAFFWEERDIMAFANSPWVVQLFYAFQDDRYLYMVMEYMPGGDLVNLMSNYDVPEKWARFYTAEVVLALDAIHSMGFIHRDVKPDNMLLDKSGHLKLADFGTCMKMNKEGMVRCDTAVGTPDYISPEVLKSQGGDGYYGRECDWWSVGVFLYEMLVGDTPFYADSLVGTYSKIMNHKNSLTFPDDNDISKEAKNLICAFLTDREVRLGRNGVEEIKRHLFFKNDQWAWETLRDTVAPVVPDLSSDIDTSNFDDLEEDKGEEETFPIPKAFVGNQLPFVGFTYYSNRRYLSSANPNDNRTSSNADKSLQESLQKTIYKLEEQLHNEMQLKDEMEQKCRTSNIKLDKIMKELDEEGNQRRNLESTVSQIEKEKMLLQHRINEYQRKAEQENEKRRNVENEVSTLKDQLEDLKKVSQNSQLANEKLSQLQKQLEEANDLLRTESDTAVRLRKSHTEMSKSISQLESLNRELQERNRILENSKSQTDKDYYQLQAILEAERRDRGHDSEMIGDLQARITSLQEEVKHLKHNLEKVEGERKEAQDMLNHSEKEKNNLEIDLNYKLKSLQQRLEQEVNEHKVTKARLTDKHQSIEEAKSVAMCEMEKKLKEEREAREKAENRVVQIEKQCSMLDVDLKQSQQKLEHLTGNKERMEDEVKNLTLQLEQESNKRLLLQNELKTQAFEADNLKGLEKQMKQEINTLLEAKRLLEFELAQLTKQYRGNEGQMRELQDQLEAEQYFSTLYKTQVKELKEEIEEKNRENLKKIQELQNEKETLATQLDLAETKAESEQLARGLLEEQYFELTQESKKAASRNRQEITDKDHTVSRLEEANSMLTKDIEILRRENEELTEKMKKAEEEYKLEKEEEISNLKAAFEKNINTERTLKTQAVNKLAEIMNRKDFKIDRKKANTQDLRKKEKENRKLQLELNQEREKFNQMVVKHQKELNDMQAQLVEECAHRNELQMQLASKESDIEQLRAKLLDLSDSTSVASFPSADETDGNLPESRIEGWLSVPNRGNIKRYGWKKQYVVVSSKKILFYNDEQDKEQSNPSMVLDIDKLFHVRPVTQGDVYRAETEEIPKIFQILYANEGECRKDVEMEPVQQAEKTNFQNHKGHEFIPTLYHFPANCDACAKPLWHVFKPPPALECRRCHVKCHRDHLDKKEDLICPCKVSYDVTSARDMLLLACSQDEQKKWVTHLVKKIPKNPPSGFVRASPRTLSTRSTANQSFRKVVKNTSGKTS
Outline: as §1

[4] = molecular target: UniProt Q9HBH9
Sequence of UniProt Q9HBH9 (Q9HBH9 whole entry, looked up): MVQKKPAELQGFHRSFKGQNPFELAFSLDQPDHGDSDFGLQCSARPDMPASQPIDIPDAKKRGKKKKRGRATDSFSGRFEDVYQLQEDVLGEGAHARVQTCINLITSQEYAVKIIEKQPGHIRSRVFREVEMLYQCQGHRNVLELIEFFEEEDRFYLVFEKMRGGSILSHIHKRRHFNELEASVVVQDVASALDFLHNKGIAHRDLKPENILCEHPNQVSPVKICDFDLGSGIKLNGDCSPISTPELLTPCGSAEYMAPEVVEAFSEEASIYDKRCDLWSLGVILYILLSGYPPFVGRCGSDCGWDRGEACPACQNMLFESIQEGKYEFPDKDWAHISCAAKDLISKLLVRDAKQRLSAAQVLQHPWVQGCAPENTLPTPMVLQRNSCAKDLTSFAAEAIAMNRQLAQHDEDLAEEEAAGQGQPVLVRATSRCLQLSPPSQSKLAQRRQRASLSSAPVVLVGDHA
Outline: as §1

[5] = molecular target: T2, TTK (UniProt P33981)
T2 sequence (whole entry): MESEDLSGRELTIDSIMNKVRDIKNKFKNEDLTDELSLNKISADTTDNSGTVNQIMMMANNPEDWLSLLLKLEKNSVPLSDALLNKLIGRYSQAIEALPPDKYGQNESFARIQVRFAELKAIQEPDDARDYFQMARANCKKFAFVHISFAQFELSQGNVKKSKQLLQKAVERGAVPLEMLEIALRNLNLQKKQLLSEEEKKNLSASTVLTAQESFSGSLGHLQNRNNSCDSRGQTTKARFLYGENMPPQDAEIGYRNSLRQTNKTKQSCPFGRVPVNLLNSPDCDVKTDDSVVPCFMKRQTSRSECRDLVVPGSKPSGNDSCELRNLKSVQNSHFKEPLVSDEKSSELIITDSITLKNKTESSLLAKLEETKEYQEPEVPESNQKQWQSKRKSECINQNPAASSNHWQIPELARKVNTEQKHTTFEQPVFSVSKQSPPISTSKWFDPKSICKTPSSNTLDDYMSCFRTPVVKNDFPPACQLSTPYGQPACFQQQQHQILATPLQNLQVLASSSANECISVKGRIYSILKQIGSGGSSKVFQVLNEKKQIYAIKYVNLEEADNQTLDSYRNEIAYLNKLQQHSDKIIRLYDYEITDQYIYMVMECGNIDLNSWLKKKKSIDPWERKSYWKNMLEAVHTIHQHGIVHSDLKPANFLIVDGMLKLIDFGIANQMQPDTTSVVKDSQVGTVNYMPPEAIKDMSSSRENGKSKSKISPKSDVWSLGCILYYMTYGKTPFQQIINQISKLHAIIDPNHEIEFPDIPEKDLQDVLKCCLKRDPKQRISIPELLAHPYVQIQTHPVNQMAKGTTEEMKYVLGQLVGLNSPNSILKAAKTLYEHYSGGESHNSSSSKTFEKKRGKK
Outline: as §1

[6] = molecular target: UniProt P51812
Sequence of UniProt P51812 (P51812 whole entry): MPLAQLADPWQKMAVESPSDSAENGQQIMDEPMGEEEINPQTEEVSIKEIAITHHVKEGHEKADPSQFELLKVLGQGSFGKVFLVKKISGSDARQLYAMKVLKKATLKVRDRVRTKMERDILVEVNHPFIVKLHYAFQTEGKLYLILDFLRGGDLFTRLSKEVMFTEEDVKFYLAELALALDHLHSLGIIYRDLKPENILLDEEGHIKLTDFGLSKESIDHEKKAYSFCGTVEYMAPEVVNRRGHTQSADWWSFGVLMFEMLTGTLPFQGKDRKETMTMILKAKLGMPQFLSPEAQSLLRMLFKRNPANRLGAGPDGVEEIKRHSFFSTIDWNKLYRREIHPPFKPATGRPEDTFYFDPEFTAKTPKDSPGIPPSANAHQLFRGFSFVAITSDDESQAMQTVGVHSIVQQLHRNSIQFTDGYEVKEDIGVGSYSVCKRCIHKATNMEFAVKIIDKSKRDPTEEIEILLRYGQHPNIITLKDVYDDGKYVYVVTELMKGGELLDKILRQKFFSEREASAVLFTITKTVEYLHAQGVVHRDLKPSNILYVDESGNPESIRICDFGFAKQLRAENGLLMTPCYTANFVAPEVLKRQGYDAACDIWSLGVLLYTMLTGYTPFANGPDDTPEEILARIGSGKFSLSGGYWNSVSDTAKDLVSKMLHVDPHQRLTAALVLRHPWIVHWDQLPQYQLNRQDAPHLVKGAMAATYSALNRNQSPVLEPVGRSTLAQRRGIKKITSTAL
Outline: as §1

[7] = molecular target: UniProt Q9BQI3
Sequence of UniProt Q9BQI3 (Q9BQI3 whole entry): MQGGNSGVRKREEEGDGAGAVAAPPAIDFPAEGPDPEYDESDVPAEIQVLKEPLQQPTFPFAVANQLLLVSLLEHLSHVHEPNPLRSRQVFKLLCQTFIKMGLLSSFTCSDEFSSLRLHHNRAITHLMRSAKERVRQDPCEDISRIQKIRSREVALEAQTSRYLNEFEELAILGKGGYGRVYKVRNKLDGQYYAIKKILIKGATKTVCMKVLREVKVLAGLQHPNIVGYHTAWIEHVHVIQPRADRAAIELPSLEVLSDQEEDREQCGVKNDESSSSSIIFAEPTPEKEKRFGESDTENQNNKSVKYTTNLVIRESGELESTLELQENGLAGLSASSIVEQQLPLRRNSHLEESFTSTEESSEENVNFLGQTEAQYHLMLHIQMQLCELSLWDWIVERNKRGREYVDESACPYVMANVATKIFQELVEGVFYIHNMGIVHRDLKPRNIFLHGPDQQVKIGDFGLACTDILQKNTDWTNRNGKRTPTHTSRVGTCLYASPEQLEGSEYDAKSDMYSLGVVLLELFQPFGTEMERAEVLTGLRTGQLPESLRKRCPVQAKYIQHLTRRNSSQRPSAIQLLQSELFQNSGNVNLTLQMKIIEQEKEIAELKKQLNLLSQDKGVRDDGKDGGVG
Outline: as §1

[8] = molecular target: T3, UniProt P25098
T3 sequence (whole entry): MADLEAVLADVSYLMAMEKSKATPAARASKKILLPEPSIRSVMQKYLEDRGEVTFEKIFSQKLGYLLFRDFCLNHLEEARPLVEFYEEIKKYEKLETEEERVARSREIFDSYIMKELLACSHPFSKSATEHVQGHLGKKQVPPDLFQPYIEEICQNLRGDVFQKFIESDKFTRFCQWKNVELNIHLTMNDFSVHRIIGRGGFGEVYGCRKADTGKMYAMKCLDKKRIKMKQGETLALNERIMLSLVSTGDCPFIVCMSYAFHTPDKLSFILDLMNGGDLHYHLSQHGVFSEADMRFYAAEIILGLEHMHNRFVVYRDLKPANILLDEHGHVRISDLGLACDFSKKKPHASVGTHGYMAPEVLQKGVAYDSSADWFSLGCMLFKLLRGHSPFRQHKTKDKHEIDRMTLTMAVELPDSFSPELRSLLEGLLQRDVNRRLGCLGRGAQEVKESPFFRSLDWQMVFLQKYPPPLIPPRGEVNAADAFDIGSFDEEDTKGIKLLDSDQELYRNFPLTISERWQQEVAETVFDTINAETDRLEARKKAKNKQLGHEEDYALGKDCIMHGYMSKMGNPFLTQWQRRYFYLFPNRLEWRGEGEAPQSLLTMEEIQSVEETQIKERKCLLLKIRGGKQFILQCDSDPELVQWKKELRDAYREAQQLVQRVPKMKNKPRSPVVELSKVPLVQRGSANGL
Outline: as §1

Sequence of UniProt O75582 (O75582 whole entry, looked up): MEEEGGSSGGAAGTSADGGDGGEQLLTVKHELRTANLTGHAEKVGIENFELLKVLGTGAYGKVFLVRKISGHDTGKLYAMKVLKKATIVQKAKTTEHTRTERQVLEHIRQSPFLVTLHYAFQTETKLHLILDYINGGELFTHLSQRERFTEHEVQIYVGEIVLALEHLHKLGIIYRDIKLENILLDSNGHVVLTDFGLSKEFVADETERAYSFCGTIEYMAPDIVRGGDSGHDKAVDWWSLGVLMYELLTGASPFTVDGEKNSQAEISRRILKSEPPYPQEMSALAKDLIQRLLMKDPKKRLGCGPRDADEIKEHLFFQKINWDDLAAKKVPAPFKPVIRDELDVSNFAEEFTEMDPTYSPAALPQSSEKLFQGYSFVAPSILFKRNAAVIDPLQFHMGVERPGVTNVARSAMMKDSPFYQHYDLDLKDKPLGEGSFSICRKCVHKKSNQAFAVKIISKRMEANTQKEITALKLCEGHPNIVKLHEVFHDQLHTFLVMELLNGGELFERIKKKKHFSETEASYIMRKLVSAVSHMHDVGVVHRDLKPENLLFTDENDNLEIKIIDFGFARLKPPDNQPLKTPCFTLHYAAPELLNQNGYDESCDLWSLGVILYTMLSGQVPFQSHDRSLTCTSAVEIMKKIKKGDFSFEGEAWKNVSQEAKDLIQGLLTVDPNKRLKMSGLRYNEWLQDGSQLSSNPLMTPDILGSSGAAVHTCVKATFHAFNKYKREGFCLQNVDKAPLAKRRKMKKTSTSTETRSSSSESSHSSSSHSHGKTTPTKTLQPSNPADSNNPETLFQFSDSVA

| Structure (SMILES) | pIC50 ([1]; cell material: Lysate mix) | pIC50 [2] | pIC50 ([3]; cell material: Lysate mix) | pIC50 ([4]; cell material: Lysate mix) | pIC50 ([5]; cell material: Lysate mix) | pIC50 ([6]; cell material: Lysate mix) | pIC50 ([7]; cell material: Lysate mix) | pIC50 ([8]; cell material: Lysate mix) | pIC50 ([3]; cell material: Jurkat cells) | pIC50 ([1]; cell material: Jurkat cells) | pIC50 ([1]; cell material: Jurkat lysate) | pIC50 ([3]; cell material: Jurkat lysate) | pIC50 ([4]; cell material: Jurkat lysate) | pIC50 ([5]; cell material: Jurkat cells) | pIC50 ([5]; cell material: Jurkat lysate) | pIC50 ([6]; cell material: Jurkat cells) | pIC50 ([6]; cell material: Jurkat lysate) | pIC50 ([7]; cell material: Jurkat cells) | pIC50 ([7]; cell material: Jurkat lysate) | pIC50 ([8]; cell material: Jurkat cells) | pIC50 ([8]; cell material: Jurkat lysate) | pIC50 ([4]; cell material: Jurkat cells) |
| --- | --- | --- | --- | --- | --- | --- | --- | --- | --- | --- | --- | --- | --- | --- | --- | --- | --- | --- | --- | --- | --- | --- |
| C#CCNC(=O)c1cc(Nc2cc(C)[nH]n2)nc(N2CCN(Cc3ccc(S(=O)(=O)F)cc3)CC2)n1 | 5.11 | < 4.52 | < 4.52 | < 4.52 | < 4.52 | 5.11 | < 4.52 | < 4.52 | – | – | – | – | – | – | – | – | – | – | – | – | – | – |
| C#CCNC(=O)c1cc(Nc2cc(C3CC3)[nH]n2)nc(N2CCN(Cc3ccc(S(=O)(=O)F)cc3)CC2)n1 | 5.6 | < 4.52 | < 4.52 | < 4.52 | < 4.52 | 5.44 | – | – | – | 6 | 4.7 | < 4.52 | < 4.52 | 5.56 | < 4.52 | 5.96 | < 4.52 | 5.34 | < 4.52 | 5.69 | < 4.52 | 5.15 |
| CCNC(=O)c1cc(Nc2cc(C)[nH]n2)nc(N2CCN(Cc3ccc(S(=O)(=O)F)cc3)CC2)n1 | 4.83 | < 4.52 | < 4.52 | < 4.52 | < 4.52 | 4.87 | < 4.52 | < 4.52 | – | – | – | – | – | – | – | – | – | – | – | – | – | – |
| CCNC(=O)c1cc(Nc2cc(C3CC3)[nH]n2)nc(N2CCN(Cc3ccc(S(=O)(=O)F)cc3)CC2)n1 | 5.35 | < 4.52 | < 4.52 | < 4.52 | < 4.52 | 5.28 | 5.06 | < 4.52 | – | – | – | – | – | – | – | – | – | – | – | – | – | – |

Continued, in another order:

| pIC50 ([1]; cell material: Lysate mix) | pIC50 [2] | pIC50 ([3]; cell material: Lysate mix) | pIC50 ([4]; cell material: Lysate mix) | pIC50 ([5]; cell material: Lysate mix) | pIC50 ([6]; cell material: Lysate mix) | pIC50 ([7]; cell material: Lysate mix) | pIC50 ([8]; cell material: Lysate mix) | pIC50 ([3]; cell material: Jurkat cells) | Structure (SMILES) | pIC50 ([1]; cell material: Jurkat cells) | pIC50 ([1]; cell material: Jurkat lysate) | pIC50 ([3]; cell material: Jurkat lysate) | pIC50 ([4]; cell material: Jurkat lysate) | pIC50 ([5]; cell material: Jurkat cells) | pIC50 ([5]; cell material: Jurkat lysate) | pIC50 ([6]; cell material: Jurkat cells) | pIC50 ([6]; cell material: Jurkat lysate) | pIC50 ([7]; cell material: Jurkat cells) | pIC50 ([7]; cell material: Jurkat lysate) | pIC50 ([8]; cell material: Jurkat cells) | pIC50 ([8]; cell material: Jurkat lysate) | pIC50 ([4]; cell material: Jurkat cells) |
| --- | --- | --- | --- | --- | --- | --- | --- | --- | --- | --- | --- | --- | --- | --- | --- | --- | --- | --- | --- | --- | --- | --- |
| < 4.52 | < 4.52 | < 4.52 | < 4.52 | < 4.52 | < 4.52 | < 4.52 | < 4.52 | – | Cc1cc(Nc2cc(C(=O)NCCNC(=O)OC3CC/C=C/CCC3)nc(N3CCN(Cc4ccc(S(=O)(=O)F)cc4)CC3)n2)n[nH]1 (configuration not stated) | – | – | – | – | – | – | – | – | – | – | – | – | – |
| < 4.52 | < 4.52 | < 4.52 | < 4.52 | < 4.52 | < 4.52 | < 4.52 | < 4.52 | < 4.52 | O=C(NCCNC(=O)c1cc(Nc2cc(C3CC3)[nH]n2)nc(N2CCN(Cc3ccc(S(=O)(=O)F)cc3)CC2)n1)OC1CC/C=C/CCC1 (configuration not stated) | 5.6 | < 4.52 | < 4.52 | < 4.52 | < 4.52 | < 4.52 | 5.86 | < 4.52 | < 4.52 | < 4.52 | 5 | < 4.52 | – |
